Data on eight compounds can be found in PubChem BioAssay (NCI).

Test systems include NCI-H23 lung; OVCAR-4 ovarian; ACHN renal; SF-539 CNS; TK-10 renal; MDA-N; UACC-62 melanoma; HCT-116 colon; KM12 colon; SK-MEL-2 melanoma; MCF7 breast; HL-60(TB) leukemia; SR leukemia; BT-549 breast; OVCAR-3 ovarian; SF-268 CNS; NCI-H522 lung; A498 renal; NCI-H226 lung.
Experiment in all cases: NCI anticancer screen, dose series, 48 h

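Assay format: 96-well plates, 48-hour exposure. At the TGI there is no net growth.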

With `CCOC(=O)c1c(-c2ccc(OC)cc2)c(C#N)c(=S)n(C2OC(COC(C)=O)C(OC(C)=O)C(OC(C)=O)C2OC(C)=O)c1-c1ccccc1` (stereo unspecified), the TGI in the assay on NCI-H23 lung, in the assay with OVCAR-4 ovarian, in the assay on ACHN renal, in the assay on SF-539 CNS, with TK-10 renal and in the assay with MDA-N was greater than 100 µM throughout. In addition, the TGI in the assay on UACC-62 melanoma, in the assay on HCT-116 colon, in the assay on KM12 colon, in the assay with SK-MEL-2 melanoma, with MCF7 breast and in the assay on HL-60(TB) leukemia was greater than 100 µM in each case. Also, the TGI in the assay on SR leukemia, in the assay with BT-549 breast, in the assay with OVCAR-3 ovarian and in the assay with SF-268 CNS was greater than 100 µM throughout.
Regarding `COc1cccc2c1OC(c1ccc(Cl)cc1)C([N+](=O)[O-])=C2` (stereo unspecified), the TGI in the assay on NCI-H23 lung is 21.2 µM; in the assay with OVCAR-4 ovarian, 6.2 µM; in the assay on ACHN renal, 3.28 µM; in the assay with TK-10 renal, 16 µM; with MDA-N, 3.45 µM; with UACC-62 melanoma, 10.4 µM. Moreover, the TGI was 2.67 µM in the assay on HCT-116 colon; 4.84 µM in the assay on KM12 colon; 3.23 µM with NCI-H522 lung; greater than 100 µM in the assay with HL-60(TB) leukemia; greater than 100 µM with SR leukemia; 3.38 µM in the assay with BT-549 breast. The TGI in the assay with OVCAR-3 ovarian turned out to be 7.08 µM; with SF-268 CNS, 13.9 µM.
Regarding `OCC1OC(c2cccc3cc(O)c(O)cc23)CC1O` (stereo unspecified), the TGI in the assay on OVCAR-4 ovarian, in the assay with ACHN renal, with SF-539 CNS, in the assay on A498 renal, with TK-10 renal and in the assay on MDA-N was greater than 100 µM each time. Also, the TGI in the assay with UACC-62 melanoma, with HCT-116 colon, in the assay on KM12 colon, in the assay on SK-MEL-2 melanoma, in the assay with NCI-H522 lung and with NCI-H226 lung was greater than 100 µM throughout. Also, the TGI with MCF7 breast, in the assay on HL-60(TB) leukemia, in the assay on BT-549 breast, with OVCAR-3 ovarian and in the assay on SF-268 CNS was greater than 100 µM throughout.
Consider `COc1ccccc1/C(=N\OCCC(=O)O)c1cccs1`, for which the TGI in the assay on NCI-H23 lung, in the assay with OVCAR-4 ovarian, in the assay on ACHN renal, with SF-539 CNS, with A498 renal and in the assay with TK-10 renal was greater than 100 µM each time. In addition, the TGI with MDA-N, in the assay with UACC-62 melanoma, with HCT-116 colon, in the assay on KM12 colon, in the assay on SK-MEL-2 melanoma and in the assay on NCI-H226 lung was greater than 100 µM throughout. Further, the TGI in the assay on MCF7 breast, in the assay on HL-60(TB) leukemia, in the assay with BT-549 breast, in the assay on OVCAR-3 ovarian and in the assay on SF-268 CNS was greater than 100 µM each time.
As to `COc1ccc(N2C(=O)CC(C3CC(C(C)(C)C)CCC3=O)C2=O)cc1` (stereo unspecified), the TGI with NCI-H23 lung, in the assay on OVCAR-4 ovarian, in the assay with ACHN renal, in the assay with SF-539 CNS, with TK-10 renal and in the assay with MDA-N was greater than 100 µM in each case. Moreover, the TGI is greater than 100 µM in the assay on UACC-62 melanoma; greater than 100 µM in the assay on HCT-116 colon; greater than 100 µM in the assay with KM12 colon; 32.9 µM with NCI-H522 lung; greater than 100 µM with NCI-H226 lung; greater than 100 µM with MCF7 breast. Further, the TGI in the assay on HL-60(TB) leukemia, with SR leukemia, in the assay with BT-549 breast and in the assay with SF-268 CNS was greater than 100 µM each time.
Turning to `CCCC(=O)n1[nH]c(=O)n(-c2ccc(Cl)cc2)c1=O`, the TGI with NCI-H23 lung, in the assay on OVCAR-4 ovarian, with ACHN renal, with TK-10 renal, in the assay with MDA-N and in the assay on UACC-62 melanoma was greater than 100 µM each time. The TGI in the assay with HCT-116 colon, in the assay with KM12 colon, in the assay with SK-MEL-2 melanoma, with NCI-H226 lung, in the assay with MCF7 breast and in the assay with HL-60(TB) leukemia was greater than 100 µM in each case. Further, the TGI in the assay on SR leukemia, in the assay on BT-549 breast, with OVCAR-3 ovarian and in the assay with SF-268 CNS was greater than 100 µM each time.
For the compound `OC1(C(F)(F)F)OCCN=C1C(F)(F)F` (stereo unspecified), the TGI in the assay with NCI-H23 lung, in the assay on OVCAR-4 ovarian, in the assay with ACHN renal, in the assay on A498 renal, in the assay on TK-10 renal and with MDA-N was greater than 100 µM in each case. Further, the TGI in the assay on UACC-62 melanoma, with HCT-116 colon, in the assay with KM12 colon, in the assay with SK-MEL-2 melanoma, in the assay with NCI-H522 lung and in the assay on NCI-H226 lung was greater than 100 µM throughout. Also, the TGI with MCF7 breast, with HL-60(TB) leukemia, in the assay with BT-549 breast, with OVCAR-3 ovarian and with SF-268 CNS was greater than 100 µM in each case.
As for `COc1cc(C(=O)n2c3ccc(Br)cc3c3nc4ccccc4nc32)cc(OC)c1OC`, the TGI with NCI-H23 lung, in the assay with OVCAR-4 ovarian, with ACHN renal, with SF-539 CNS, in the assay with TK-10 renal and with MDA-N was greater than 100 µM each time. For the same compound, the TGI with UACC-62 melanoma, in the assay on HCT-116 colon, in the assay on KM12 colon, in the assay on SK-MEL-2 melanoma, in the assay with NCI-H522 lung and in the assay on NCI-H226 lung was greater than 100 µM throughout. Further, the TGI in the assay with MCF7 breast, in the assay with HL-60(TB) leukemia, in the assay with SR leukemia, in the assay with BT-549 breast, with OVCAR-3 ovarian and in the assay on SF-268 CNS was greater than 100 µM in each case.
